Measurements from patent publication US10743540B2, “3-amino-1,2,4-triazine derivatives and their use for controlling undesired plant growth” (BAYER CROPSCIENCE AKTIENGESELLSCHAFT, priority 2016, dated 2020).

Legend:
Type in all cases: in vivo
[1] = tested on: ECHCG: Echinochloa crus-galli; assay: Post-emergence herbicidal effect; settings: application rate 320 g/ha, treated at one-leaf stage, assessed visually after about 3 weeks, 100% = plants have died
In short: (§1)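 Monocot and dicot weeds grown in sandy loam in greenhouse, treated at one-leaf stage 2 to 3 weeks after sowing. Compounds as WP or EC sprayed on green parts in water at 600 to 800 L/ha with 0.2% wetting agent. Visual rating after about 3 weeks vs untreated controls (100% = plants dead, 0% = like control).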

STEME: Stellaria media [2] = assay: Post-emergence herbicidal effect; settings: application rate 320 g/ha, treated at one-leaf stage, assessed visually after about 3 weeks, 100% = plants have died
In short: as §1

VIOTR: Viola tricolor = assay: Post-emergence herbicidal effect; settings: application rate 320 g/ha, treated at one-leaf stage, assessed visually after about 3 weeks, 100% = plants have died
In short: as §1

[3] = tested on: AMARE: Amaranthus retroflexus; assay: Post-emergence herbicidal effect; settings: application rate 320 g/ha, treated at one-leaf stage, assessed visually after about 3 weeks, 100% = plants have died
In short: as §1

VERPE: Veronica persica [4] = assay: Post-emergence herbicidal effect; settings: application rate 320 g/ha, treated at one-leaf stage, assessed visually after about 3 weeks, 100% = plants have died
In short: as §1

[5] = tested on: ALOMY: Alopecurus myosuroides; assay: Post-emergence herbicidal effect; settings: application rate 320 g/ha, treated at one-leaf stage, assessed visually after about 3 weeks, 100% = plants have died
In short: as §1

[6] = tested on: MATIN: Matricaria inodora; assay: Pre-emergence herbicidal effect; settings: application rate 320 g/ha, scored visually after 3 weeks, 100% = plants have died, 0% = like control plants
In short: (§2)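 Soil-applied pre-emergence test: formulated compound in water (600 to 800 L/ha, 0.2% wetting agent) sprayed over covered seeds in sandy loam pots. Greenhouse, 3 weeks. Damage rated visually on a 0–100% scale (100% = dead).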

SETVI: Setaria viridis = assay: Pre-emergence herbicidal effect; settings: application rate 320 g/ha, scored visually after 3 weeks, 100% = plants have died, 0% = like control plants
In short: as §2

[7] = tested on: ECHCG: Echinochloa crus-galli; assay: Pre-emergence herbicidal effect; settings: application rate 320 g/ha, scored visually after 3 weeks, 100% = plants have died, 0% = like control plants
In short: as §2

[8] = tested on: LOLMU: Lolium multiflorum; assay: Pre-emergence herbicidal effect; settings: application rate 320 g/ha, scored visually after 3 weeks, 100% = plants have died, 0% = like control plants
In short: as §2

STEME: Stellaria media [9] = assay: Pre-emergence herbicidal effect; settings: application rate 320 g/ha, scored visually after 3 weeks, 100% = plants have died, 0% = like control plants
In short: as §2

[10] = tested on: POLCO: Polygonum convolvulus; assay: Pre-emergence herbicidal effect; settings: application rate 320 g/ha, scored visually after 3 weeks, 100% = plants have died, 0% = like control plants
In short: as §2

[11] = tested on: ABUTH: Abutilon theophrasti; assay: Pre-emergence herbicidal effect; settings: application rate 320 g/ha, scored visually after 3 weeks, 100% = plants have died, 0% = like control plants
In short: as §2

VERPE: Veronica persica [12] = assay: Pre-emergence herbicidal effect; settings: application rate 320 g/ha, scored visually after 3 weeks, 100% = plants have died, 0% = like control plants
In short: as §2

[13] = tested on: ALOMY: Alopecurus myosuroides; assay: Pre-emergence herbicidal effect; settings: application rate 320 g/ha, scored visually after 3 weeks, 100% = plants have died, 0% = like control plants
In short: as §2

SMILES | Herbicidal activity with respect to [%] ECHCG [1] | Herbicidal activity with respect to [%] STEME (STEME: Stellaria media [2]) | Herbicidal activity with respect to [%] VIOTR (VIOTR: Viola tricolor) | Herbicidal activity with respect to [%] AMARE [3] | Herbicidal activity with respect to [%] VERPE (VERPE: Veronica persica [4]) | Herbicidal activity with respect to [%] ALOMY [5] | Herbicidal activity with respect to [%] MATIN [6] | Herbicidal activity with respect to [%] SETVI (SETVI: Setaria viridis) | Herbicidal activity with respect to [%] ECHCG [7] | Herbicidal activity with respect to [%] LOLMU [8] | Herbicidal activity with respect to [%] STEME (STEME: Stellaria media [9]) | Herbicidal activity with respect to [%] POLCO [10] | Herbicidal activity with respect to [%] ABUTH [11] | Herbicidal activity with respect to [%] VERPE (VERPE: Veronica persica [12]) | Herbicidal activity with respect to [%] ALOMY [13]
CC(=O)c1nnc(N[C@@H]2CCc3ccc(C)cc32)nc1N [Example 1.72] | 100% | 100% | 90% | 90% | 80% | 100% | 100% | 100% | 100% | 100% | 100% | 100% | 100% | 100% | 100%
Cc1ccc2c(c1)[C@H](Nc1nnc(S(C)(=O)=O)c(N)n1)CC2 [Example 1.73] | 100% | 100% | 90% | 100% | 100% | 100% | 100% | 100% | 100% | 100% | 100% | 100% | 100% | 100% | 100%
Cc1ccc2c(c1)[C@H](Nc1nnc(C(F)(F)F)c(N)n1)CCC2 [Example 1.52] | 100% | 100% | 90% | 100% | 90% | 100% | 100% | 100% | 100% | 100% | 100% | 100% | 100% | 100% | 100%
Cc1ccc2c(c1)[C@H](Nc1nnc(C(F)(F)F)c(N)n1)[C@@H](C)C2 [Example 1.23] | 100% | 100% | 100% | 100% | 90% | 100% | 100% | 100% | 100% | 90% | 100% | 100% | 100% | 100% | 100%
